Test results published in PMC9841524, “Structure-Based Rational Design of Small α-Helical Peptides with Broad-Spectrum Activity against Multidrug-Resistant Pathogens” (Journal of Medicinal Chemistry, 2022).
Where no end group is shown, it is not given here.

test system: S. aureus (ATCC 29213); experiment: MIC, standard microtiter dilution (CLSI); assay type: cell-based; conditions: broth microdilution (CLSI), CAMHB, 10^6 CFU/mL, 37 °C, 24 h; highest MIC of three independent experiments in triplicate
Experimental: (§1) Description of the characteristics and growth conditions of various bacterial strains used in the study are provided in the Supporting Information (Table S3). Antibacterial susceptibility testing was carried out using a standard microtiter dilution method recommended by the clinical and laboratory standard institute (CLSI) and measured as a minimum inhibitory concentration (MIC), the lowest peptide concentration that inhibited bacterial growth. Briefly, the overnight grown cultures in the recommended broth for each bacterial strain were diluted in cation-adjusted Mueller Hinton Broth (CAMHB) to give an inoculum of 10^6 colony-forming units (CFU)/mL. A 2-fold serially diluted test peptide solution (100 μL) was added to the microtiter plates. After adding bacterial suspension (100 μL), the plates were incubated at 37 °C for 24 h, and the MICs were determined. The same protocol was used to determine the MICs in the presence of salts and serum except using the media supplemented with various cationic salts (150 mM NaCl, 4.5 mM KCl, 6 mM NH4Cl, 1 mM MgCl2, and 2 mM CaCl2) or 25% FBS. The data was acquired from three independent assays performed in triplicate.
(§2) The bacterial strains employed in this study were obtained from the American Type Culture Collection (ATCC). Each strain was propagated as recommended by the ATCC, and each strain was stored as a frozen glycerol stock at -80°C. A bacterial colony was grown on the appropriate agar as indicated in Table S1 and was used to inoculate the appropriate broth. The culture was incubated at the appropriate conditions, as mentioned in Table S1. Following the incubation, the culture was diluted to an optical density 625 nm (OD625) of 0.1 in cation adjusted Mueller Hinton Broth (CAMHB), which is equivalent to 1 × 10^8 CFU/mL. The culture was further diluted to 1 × 10^6 CFU/mL, which was used to conduct the MIC determination assay. For the S. pneumoniae strains, CAMHB + 2.5% lysed horse blood was required for the assay. The strains with their […]
(§3) Table S3. Description of the characteristics and growth conditions of various bacterial strains

Substance | MIC, S. aureus (ATCC 29213)
H-RAWRRWARAW-NH2 [4d] | > 100 µg/mL
H-RAWRRWWARA-NH2 [4g] | > 100 µg/mL
H-RWWRRWR-NH2 [1e] | 100 µg/mL
RAARRWARWWR-NH2 [5a] | 100 µg/mL
RAWRRWWRA-NH2 [3b] | > 100 µg/mL
RAWRRWWRAA-NH2 [4b] | > 100 µg/mL
RRWRRWW-NH2 [1d] | 100 µg/mL

same assay, conditions: value in parentheses (μM); broth microdilution (CLSI), CAMHB, 37 °C, 24 h

Substance | MIC, S. aureus (ATCC 29213)
H-RAWRRWARAW-NH2 [4d] | > 70.74 µM
H-RAWRRWWARA-NH2 [4g] | > 70.74 µM
H-RWWRRWR-NH2 [1e] | 83.30 µM
RAARRWARWWR-NH2 [5a] | 63.70 µM
RAWRRWWRA-NH2 [3b] | > 74.48 µM
RAWRRWWRAA-NH2 [4b] | > 70.74 µM
RRWRRWW-NH2 [1d] | 83.30 µM

test system: P. aeruginosa (ATCC 27883); experiment: MIC, standard microtiter dilution (CLSI); assay type: cell-based, Pseudomonas aeruginosa; conditions: broth microdilution (CLSI), CAMHB, 10^6 CFU/mL, 37 °C, 24 h; highest MIC of three independent experiments in triplicate
Experimental: as §1, §2, §3

Substance | MIC, P. aeruginosa (ATCC 27883)
H-RAWRRWARAW-NH2 [4d] | > 100 µg/mL
H-RAWRRWWARA-NH2 [4g] | > 100 µg/mL
H-RWWRRWR-NH2 [1e] | > 100 µg/mL
RAARRWARWWR-NH2 [5a] | > 100 µg/mL
RAWRRWWRA-NH2 [3b] | > 100 µg/mL
RAWRRWWRAA-NH2 [4b] | > 100 µg/mL
RRWRRWW-NH2 [1d] | > 100 µg/mL

same assay, conditions: value in parentheses (μM); broth microdilution (CLSI), CAMHB, 37 °C, 24 h

Substance | MIC, P. aeruginosa (ATCC 27883)
H-RAWRRWARAW-NH2 [4d] | > 70.74 µM
H-RAWRRWWARA-NH2 [4g] | > 70.74 µM
H-RWWRRWR-NH2 [1e] | > 83.30 µM
RAARRWARWWR-NH2 [5a] | > 63.70 µM
RAWRRWWRA-NH2 [3b] | > 74.48 µM
RAWRRWWRAA-NH2 [4b] | > 70.74 µM
RRWRRWW-NH2 [1d] | > 83.30 µM

test system: human red blood cells (hRBCs); experiment: Hemolytic assay; assay type: cell-based; conditions: hRBC suspension 4% in PBS, 2 h, 37 °C, hemoglobin release at 567 nm; 1% Triton X-100 = 100%
Experimental: The hemolytic activity of all peptides (1a–8d) was determined using hRBC. The assay was conducted by adding 75 μL of 2-fold serially diluted peptides to 75 μL of hRBC suspension (4% in PBS). The plates were incubated for 2 h at 37 °C without agitation. In order to determine the hemolysis at each tested concentration of peptides, the plate was centrifuged, and 100 μL of the supernatant was transferred to another 96-well plate to determine hemoglobin release spectrophotometrically at 567 nm. Percent hemolysis was calculated by the following formula [drawing 1] where A represents the absorbance of the peptide sample at 567 nm and A0 and At represent zero percent and 100% hemolysis determined in phosphate buffer saline and 1% Triton X-100, respectively.

Substance | HC50 (concentration at which 50% hemolysis was observed)
H-RAWRRWARAW-NH2 [4d] | > 500 µg/mL
H-RAWRRWWARA-NH2 [4g] | > 500 µg/mL
H-RWWRRWR-NH2 [1e] | > 500 µg/mL
RAARRWARWWR-NH2 [5a] | > 500 µg/mL
RAWRRWWRA-NH2 [3b] | > 500 µg/mL
RAWRRWWRAA-NH2 [4b] | > 500 µg/mL
RRWRRWW-NH2 [1d] | > 500 µg/mL

same assay, conditions: value in parentheses (μM); hRBC 4% in PBS, 2 h, 37 °C, 567 nm

Substance | HC50 (concentration at which 50% hemolysis was observed)
H-RAWRRWARAW-NH2 [4d] | > 353.69 µM
H-RAWRRWWARA-NH2 [4g] | > 353.69 µM
H-RWWRRWR-NH2 [1e] | > 416.52 µM
RAARRWARWWR-NH2 [5a] | > 318.50 µM
RAWRRWWRA-NH2 [3b] | > 372.42 µM
RAWRRWWRAA-NH2 [4b] | > 353.69 µM
RRWRRWW-NH2 [1d] | > 416.52 µM

test system: K. pneumoniae (ATCCBAA-1705); experiment: MIC, standard microtiter dilution (CLSI); assay type: cell-based, Klebsiella pneumoniae; conditions: broth microdilution (CLSI), CAMHB, 10^6 CFU/mL, 37 °C, 24 h; highest MIC of three independent experiments in triplicate
Experimental: as §1, §2, §3

Substance | MIC, K. pneumoniae (ATCCBAA-1705)
H-RAWRRWARAW-NH2 [4d] | > 100 µg/mL
H-RAWRRWWARA-NH2 [4g] | > 100 µg/mL
H-RWWRRWR-NH2 [1e] | > 100 µg/mL
RAARRWARWWR-NH2 [5a] | > 100 µg/mL
RAWRRWWRA-NH2 [3b] | > 100 µg/mL
RAWRRWWRAA-NH2 [4b] | > 100 µg/mL
RRWRRWW-NH2 [1d] | > 100 µg/mL

same assay, conditions: value in parentheses (μM); broth microdilution (CLSI), CAMHB, 37 °C, 24 h

Substance | MIC, K. pneumoniae (ATCCBAA-1705)
H-RAWRRWARAW-NH2 [4d] | > 70.74 µM
H-RAWRRWWARA-NH2 [4g] | > 70.74 µM
H-RWWRRWR-NH2 [1e] | > 83.30 µM
RAARRWARWWR-NH2 [5a] | > 63.70 µM
RAWRRWWRA-NH2 [3b] | > 74.48 µM
RAWRRWWRAA-NH2 [4b] | > 70.74 µM
RRWRRWW-NH2 [1d] | > 83.30 µM

test system: MRSA (ATCC BAA-1556); experiment: not given; conditions: broth microdilution (CLSI), CAMHB, 10^6 CFU/mL, 37 °C, 24 h; highest MIC of three independent experiments in triplicate
Experimental: as §1, §2, §3

Substance | MIC, MRSA (ATCC BAA-1556)
H-RAWRRWARAW-NH2 [4d] | > 100 µg/mL
H-RAWRRWWARA-NH2 [4g] | > 100 µg/mL
H-RWWRRWR-NH2 [1e] | 100 µg/mL
RAARRWARWWR-NH2 [5a] | 100 µg/mL
RAWRRWWRA-NH2 [3b] | > 100 µg/mL
RAWRRWWRAA-NH2 [4b] | > 100 µg/mL
RRWRRWW-NH2 [1d] | 100 µg/mL

same assay, conditions: value in parentheses (μM); broth microdilution (CLSI), CAMHB, 37 °C, 24 h

Substance | MIC, MRSA (ATCC BAA-1556)
H-RAWRRWARAW-NH2 [4d] | > 70.74 µM
H-RAWRRWWARA-NH2 [4g] | > 70.74 µM
H-RWWRRWR-NH2 [1e] | 83.30 µM
RAARRWARWWR-NH2 [5a] | 63.70 µM
RAWRRWWRA-NH2 [3b] | > 74.48 µM
RAWRRWWRAA-NH2 [4b] | > 70.74 µM
RRWRRWW-NH2 [1d] | 83.30 µM

test system: E. coli (ATCC 25922); experiment: not given; conditions: broth microdilution (CLSI), CAMHB, 10^6 CFU/mL, 37 °C, 24 h; highest MIC of three independent experiments in triplicate
Experimental: as §1, §2, §3

Substance | MIC, E. coli (ATCC 25922)
H-RAWRRWARAW-NH2 [4d] | > 100 µg/mL
H-RAWRRWWARA-NH2 [4g] | > 100 µg/mL
H-RWWRRWR-NH2 [1e] | > 100 µg/mL
RAARRWARWWR-NH2 [5a] | > 100 µg/mL
RAWRRWWRA-NH2 [3b] | > 100 µg/mL
RAWRRWWRAA-NH2 [4b] | > 100 µg/mL
RRWRRWW-NH2 [1d] | > 100 µg/mL

same assay, conditions: value in parentheses (μM); broth microdilution (CLSI), CAMHB, 37 °C, 24 h

Substance | MIC, E. coli (ATCC 25922)
H-RAWRRWARAW-NH2 [4d] | > 70.74 µM
H-RAWRRWWARA-NH2 [4g] | > 70.74 µM
H-RWWRRWR-NH2 [1e] | > 83.30 µM
RAARRWARWWR-NH2 [5a] | > 63.70 µM
RAWRRWWRA-NH2 [3b] | > 74.48 µM
RAWRRWWRAA-NH2 [4b] | > 70.74 µM
RRWRRWW-NH2 [1d] | > 83.30 µM
